In publication PMC11672294, “The Antipsychotic Drug Aripiprazole Suppresses Colorectal Cancer by Targeting LAMP2a to Induce RNH1/miR‐99a/mTOR‐Mediated Autophagy and Apoptosis” (Advanced Science, 2024):
Counter-ions that a name gives are not always drawn.

tested on: HT29; settings: 72 h, relative to DMSO, 10 µM, Relative cell viability (%)
Summary of the method: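 Cells were exposed to drug for 72 h, then to WST-1 for 2 h at 37 °C, and absorbance was read at 450 nm as viability against DMSO treatment. In the screen, each compound was applied at 10 µM.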

Row | Compound | Relative cell viability (%) [%]
1 | O=C(O)Cc1ccccc1Nc1c(Cl)cccc1Cl [Diclofenac Potassium] | 69.42
2 | O=C(O)Cc1ccccc1Nc1c(Cl)cccc1Cl [Diclofenac Diethylamine] | 60.68
3 | CC(C)NCC(O)COc1ccc(CCOCC2CC2)cc1 (stereo not shown) [Betaxolol hydrochloride (Betoptic)] | 100.8

same assay, conditions: 72 h, relative to DMSO; 10 µM

Row | Compound | Relative cell viability (%) [%]
4 | CNC(=O)[C@H](Cc1ccccc1)NC(=O)[C@H](CC(C)C)[C@H](CSc1cccs1)C(=O)NO [Batimastat (BB-94)] | 103.4
5 | COc1ccc2cccc(CCNC(C)=O)c2c1 [Agomelatine] | 61.84
6 | CCOC(=O)[C@H](CCc1ccccc1)N[C@@H](C)C(=O)N1CCC[C@H]1C(=O)O [Enalapril Maleate] | 98.82
7 | COc1ccccc1N1CCN(CCCNc2cc(=O)n(C)c(=O)n2C)CC1 [Urapidil HCl] | 222.9
8 | CC(C)(Oc1ccc(C2CC2(Cl)Cl)cc1)C(=O)O (stereo not shown) [Ciprofibrate] | 34.47
9 | CO/N=C(\C(=O)N[C@@H]1C(=O)N2C(C(=O)OCOC(=O)C(C)(C)C)=C(/C=C\c3scnc3C)CS[C@H]12)c1csc(N)n1 [Cefditoren Pivoxil] | 66.53
10 | O=C1CCc2cc(OCCCCc3nnnn3C3CCCCC3)ccc2N1 [Cilostazol] | 80.53
11 | Cc1ccc(-n2nccn2)c(C(=O)N2CCN(c3nc4cc(Cl)ccc4o3)CC[C@H]2C)c1 [Suvorexant (MK-4305)] | 90.6
12 | CCCC(CCC)C(=O)O[C@H]1C[C@H]2CC[C@@H](C1)[N+]2(C)C [Anisotropine Methylbromide] | 55.76
13 | Cc1cc(Nc2cc(CN3CCOCC3)c3nc(C)c(Cc4ccc(Cl)cc4F)n3n2)n[nH]1 [LY2784544] | 102.6
14 | N=C(N)c1ccc2cc(OC(=O)c3ccc(N=C(N)N)cc3)ccc2c1 [Nafamostat Mesylate] | 66.51
15 | CC(C)c1nc(CN(C)C(=O)N[C@@H](CCN2CCOCC2)C(=O)N[C@H](CC[C@H](Cc2ccccc2)NC(=O)OCc2cncs2)Cc2ccccc2)cs1 [Cobicistat (GS-9350)] | 63.59
16 | O=c1[nH]c(=O)n([C@H]2C[C@H](O)[C@@H](CO)O2)cc1I [Idoxuridine] | 86.86
17 | O=P1(NCCCl)OCCCN1CCCl (stereo not shown) [Ifosfamide] | 92.99
18 | C[C@@H](CN1CC(=O)NC(=O)C1)N1CC(=O)NC(=O)C1 [Dexrazoxane HCl (ICRF-187, ADR-529)] | 75.86
19 | C=C[C@]1(C)C[C@@H](OC(=O)CSC(C)(C)CNC(=O)[C@H](N)C(C)C)[C@]2(C)[C@H](C)CC[C@]3(CCC(=O)[C@H]32)[C@@H](C)[C@@H]1O [Valnemulin HCl] | 68.48
20 | Cc1c(-c2ccnn2C)cc(C(=O)NCc2ccc(S(C)(=O)=O)cn2)c(=O)n1-c1cccc(C(F)(F)F)c1 [Alvelestat (AZD9668)] | 116.2
21 | CN1CCC(=C2c3ccccc3CC(=O)c3sccc32)CC1 [Ketotifen Fumarate] | 182.5
22 | CCCS(=O)(=O)Nc1ccc(F)c(C(=O)c2c[nH]c3ncc(-c4ccc(Cl)cc4)cc23)c1F [Vemurafenib (PLX4032, RG7204)] | 36.92
23 | c1ccc(CN(CC2=NCCN2)c2ccccc2)cc1 [Antazoline HCl] | 63.94

Row | Compound | Relative cell viability (%) [%]
24 | C[C@@H]1[C@H](O)[C@@H](C)/C=C/C=C/CC/C=C/C=C/C=C/C=C/[C@H](O[C@H]2O[C@@H](C)[C@H](O)[C@@H](N)[C@H]2O)C[C@@H]2O[C@](O)(C[C@@H](O)[C@H](O)CC[C@@H](O)C[C@@H](O)C[C@@H](O)CC(=O)O[C@H]1C)C[C@H](O)[C@H]2C(=O)O [Nystatin (Fungicidin)] | 170.8
25 | Nc1nc(F)nc2c1ncn2[C@@H]1O[C@H](COP(=O)(O)O)[C@@H](O)[C@@H]1O [Fludarabine Phosphate] | 52.49
26 | CCCCCCOC(=O)NC(=N)c1ccc(NCc2nc3cc(C(=O)N(CCC(=O)OCC)c4ccccn4)ccc3n2C)cc1 [Dabigatran Etexilate] | 102
27 | Cn1nnc2c(C(N)=O)ncn2c1=O [Temozolomide] | 86.76
28 | Cc1cccc(N(C)C(=S)Oc2ccc3ccccc3c2)c1 [Tolnaftate] | 126.1
29 | COc1ccccc1OCC(O)CO (stereo not shown) [Guaifenesin] | 74.15
30 | C[C@@H]1C[C@H]2[C@@H]3CCC4=CC(=O)C=C[C@]4(C)[C@@]3(Cl)[C@@H](O)C[C@]2(C)[C@@]1(OC(=O)c1ccco1)C(=O)CCl [Mometasone furoate] | 144.2
31 | CCCCCCCC(=O)N[C@H](CN1CCCC1)[C@H](O)c1ccc2c(c1)OCCO2 [Eliglustat Tartrate] | 81.62
32 | CNCC[C@H](Oc1cccc2ccccc12)c1cccs1 [Duloxetine HCl] | 99.61
33 | CCCCC(=O)N(Cc1ccc(-c2ccccc2-c2nnn[nH]2)cc1)[C@H](C(=O)O)C(C)C [Valsartan] | 83.05
34 | CC(=O)Oc1ccccc1C(=O)O [Aspirin] | 63.59
35 | C[C@@H](O[C@H]1OCCN(Cc2nc(O)n(P(=O)(O)O)n2)[C@H]1c1ccc(F)cc1)c1cc(C(F)(F)F)cc(C(F)(F)F)c1 [Fosaprepitant dimeglumine salt] | 111.6
36 | COc1nc(C)nc(Cl)c1N=C1NCCN1 [Moxonidine] | 116.7
37 | Cc1ccc(S(=O)(=O)NC(=O)NN2CC3CCC[C@@H]3C2)cc1 (stereo in doubt) [Gliclazide] | 70.87
38 | Cc1cnc(Nc2ccc(OCCN3CCCC3)cc2)nc1Nc1cccc(S(=O)(=O)NC(C)(C)C)c1 [TG101348 (SAR302503)] | 16.99
39 | N#C/C(=C1/SC[C@@H](c2ccc(Cl)cc2Cl)S1)n1ccnc1 [Luliconazole] | 76.67
40 | CO[C@H]1/C=C/O[C@@]2(C)Oc3c(C)c(O)c4c(c3C2=O)C2=NC3(CCN(CC(C)C)CC3)NC2=C(NC(=O)/C(C)=C\C=C\[C@H](C)[C@H](O)[C@@H](C)[C@@H](O)[C@@H](C)[C@H](OC(C)=O)[C@@H]1C)C4=O [Rifabutin] | 70.34
41 | CN(Cc1cc(Br)cc(Br)c1N)C1CCCCC1 [Bromhexine HCl] | 122.9
42 | C[C@]12C=CC(=O)C=C1CC[C@@H]1[C@@H]2[C@@H](O)C[C@@]2(C)[C@H]1CC[C@]2(O)C(=O)CO [Prednisolone] | 56.36
43 | O=c1ccc2ccccc2o1 [Coumarin] | 71.21

Row | Compound | Relative cell viability (%) [%]
44 | CCOc1cc(N)c(Cl)cc1C(=O)NCC1CN(Cc2ccc(F)cc2)CCO1 (stereo not shown) [Mosapride Citrate] | 38.47
45 | OCCOCCN1CCN(C2=Nc3ccccc3Sc3ccccc32)CC1 [Quetiapine Fumarate] | 47.46
46 | OCCN(CCO)c1nc(N2CCCCC2)c2nc(N(CCO)CCO)nc(N3CCCCC3)c2n1 [Dipyridamole] | 52.54
47 | CCOc1ccc2nc3cc(N)ccc3c(N)c2c1 [Ethacridine lactate monohydrate] | 39.39
48 | CC(=O)Oc1cccc2c1C(=O)c1c(OC(C)=O)cc(C(=O)O)cc1C2=O [Diacerein] | 73.94
49 | CN(C)[C@@H]1C(O)=C(C(N)=O)C(=O)[C@@]2(O)C(O)=C3C(=O)c4c(O)ccc(Cl)c4[C@@H](O)[C@H]3C[C@@H]12 [Demeclocycline HCl] | 74.85
50 | N#Cc1ccccc1-c1cc(-c2ccccn2)cn(-c2ccccc2)c1=O [Perampanel] | 104.7
51 | COc1ccc(-c2ccc3cc(C(=O)O)ccc3c2)cc1[C@]12C[C@H]3C[C@H](C[C@H](C3)C1)C2 [Adapalene] | 16.67
52 | C[C@@](Cc1ccc(O)c(O)c1)(NN)C(=O)O [Carbidopa] | 97.03
53 | CCCNC(=O)NS(=O)(=O)c1ccc(Cl)cc1 [Chlorpropamide] | 79.39
54 | Clc1ccc(CCC(Cn2ccnc2)Sc2c(Cl)cccc2Cl)cc1 (stereo not shown) [Butoconazole nitrate] | 63.98
55 | CCCN(CCC)C(=O)C1=Cc2ccc(-c3ccc(C(=O)N4CCCC4)cc3)cc2N=C(N)C1 [Motolimod (VTX-2337)] | 31.62
56 | CN1CCC[C@@H]1CCO[C@](C)(c1ccccc1)c1ccc(Cl)cc1 [Clemastine Fumarate] | 16.95
57 | CCCCCCCCCCCC1=C(O)C(=O)C=C(O)C1=O [Embelin] | 140.6
58 | C[C@H](CS)C(=O)N1CCC[C@H]1C(=O)O [Captopril] | 243.5
59 | C[N+]1(C)[C@@H]2C[C@@H](OC(=O)[C@H](CO)c3ccccc3)C[C@H]1[C@@H]1O[C@@H]12 [Methscopolamine] | 132.5
60 | COc1ccc(C[C@H](N)C(=O)N[C@H]2[C@@H](O)[C@H](n3cnc4c(N(C)C)ncnc43)O[C@@H]2CO)cc1 [Puromycin 2HCl] | 0
61 | Cc1ccccc1C(OCCN(C)C)c1ccccc1 (stereo not shown) [Orphenadrine Citrate] | 102.4
